Columns and labels:
[1] = Cytotoxicity against human SH-SY5Y cells after 24 to 72 hrs by MTT assay; assay type: cell-based
Adenosine receptor A2a = Adenosine receptor A2a (Homo sapiens, UniProt P29274); experiment: Displacement of [3H]-ZM-241385 from human adenosine A2A receptor expressed in HEK293 cell membranes after 1 hr by scintillation counting analysis
Sequence of Adenosine receptor A2a (P29274 whole entry): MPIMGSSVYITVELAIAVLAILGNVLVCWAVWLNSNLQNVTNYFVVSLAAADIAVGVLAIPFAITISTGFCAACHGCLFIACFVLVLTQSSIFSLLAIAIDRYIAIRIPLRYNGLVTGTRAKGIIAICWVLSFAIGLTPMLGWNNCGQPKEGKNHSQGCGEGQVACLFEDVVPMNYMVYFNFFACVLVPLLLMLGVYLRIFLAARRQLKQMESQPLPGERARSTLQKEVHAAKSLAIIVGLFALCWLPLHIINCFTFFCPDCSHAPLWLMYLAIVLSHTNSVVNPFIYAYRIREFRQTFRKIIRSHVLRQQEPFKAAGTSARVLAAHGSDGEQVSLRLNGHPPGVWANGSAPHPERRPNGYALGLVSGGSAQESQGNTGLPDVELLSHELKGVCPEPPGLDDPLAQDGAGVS

Row | Ki (Adenosine receptor A2a) [µM] | Structure (SMILES) | CC50 [1] [µM]
1 | > 10 | COc1ccc(-c2cn3cc(C#Cc4ccccc4)cc(N)c3n2)cc1OC | 66.7
2 | > 10 | Nc1cc(-c2ccccc2)cn2cc(-c3ccco3)nc12 | 0.5
3 | > 10 | COc1ccc(-c2cn3cc(C(=O)NCCc4ccc(O)cc4)cc(N)c3n2)cc1OC | 26.9
4 | > 10 | c1coc(-c2cn3ccccc3n2)c1 | > 100
5 | > 10 | Nc1cc(-c2ccco2)cn2cc(-c3ccco3)nc12 | 2.27
6 | 0.418 | Nc1cc(-c2ccco2)cn2cc(-c3ccccc3)nc12 | 26
7 | > 10 | COc1ccc(-c2cn3cc(C(=O)NCCCN4CCOCC4)cc(N)c3n2)cc1OC | > 100
8 | 0.117 | COc1ccc(-c2cn3cc(-c4ccco4)cc(N)c3n2)cc1OC | 36.4

The next lines start with the compound.

Row | Structure (SMILES) | Ki (Adenosine receptor A2a) [µM] | CC50 [1] [µM]
9 | Nc1cccn2cc(-c3ccco3)nc12 | > 10 | > 100
10 | COc1ccc(-c2cn3cc(C(=O)NCCCN4CCCCC4)cc(N)c3n2)cc1OC | > 10 | 49.6
11 | COCCOc1ccc(N2CCN(CCNC(=O)c3cc(N)c4nc(-c5ccc(OC)c(OC)c5)cn4c3)CC2)cc1 | > 10 | 31.8
12 | COc1ccc(-c2cn3cc(CCc4ccccc4)cc(N)c3n2)cc1OC | > 10 | 50.4
13 | c1ccc(-c2cn3cc(-c4ccco4)ccc3n2)cc1 | > 10 | > 100
14 | COc1ccc(-c2cn3cc(C(=O)NCCCN4CCN(C)CC4)cc(N)c3n2)cc1OC | > 10 | > 100
15 | COCCOc1ccc(N2CCN(C(=O)c3cc(N)c4nc(-c5ccc(OC)c(OC)c5)cn4c3)CC2)cc1 | > 10 | > 100
16 | c1ccc(-c2ccc3nc(-c4ccco4)cn3c2)cc1 | > 10 | 0.42
17 | COc1ccc(-c2cn3cc(C(=O)NCCCN4CCNCC4)cc(N)c3n2)cc1OC | > 10 | > 100
18 | COc1ccc(-c2cn3cc(-c4ccco4)ccc3n2)cc1OC | 0.238 | 30
19 | c1coc(-c2ccc3nc(-c4ccco4)cn3c2)c1 | 1.63 | 3

Reference: ChEMBL document CHEMBL4118172, “Design and synthesis of 2,6-disubstituted-8-amino imidazo[1,2a]pyridines, a promising privileged structure” (Bioorg Med Chem, 2018)
